Where two headings read alike, the source gives them in different places.
Columns and labels:
Format in all cases: binding
[1] = target: T1, HeLa cell extract proteins (Homo sapiens, UniProt O95429)
T1 construct: endogenous in cells; host or cells: HeLa cell extract
T1 sequence (O95429 1-457): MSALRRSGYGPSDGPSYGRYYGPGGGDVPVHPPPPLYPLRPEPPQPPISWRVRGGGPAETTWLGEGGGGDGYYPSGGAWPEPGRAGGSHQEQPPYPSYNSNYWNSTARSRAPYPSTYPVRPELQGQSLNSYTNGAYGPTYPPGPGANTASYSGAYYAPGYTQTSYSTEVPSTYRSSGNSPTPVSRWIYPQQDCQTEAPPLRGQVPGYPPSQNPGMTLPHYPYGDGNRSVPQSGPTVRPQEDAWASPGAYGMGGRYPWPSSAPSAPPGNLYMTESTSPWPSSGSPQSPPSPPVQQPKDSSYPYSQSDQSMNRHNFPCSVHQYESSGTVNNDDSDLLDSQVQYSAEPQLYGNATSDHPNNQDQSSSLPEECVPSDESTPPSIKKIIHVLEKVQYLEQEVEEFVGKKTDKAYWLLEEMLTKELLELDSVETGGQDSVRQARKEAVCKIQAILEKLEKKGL

[2] = target: T2, HeLa cell extract proteins (Homo sapiens, UniProt P31689)
T2 construct: endogenous in cells; host or cells: HeLa cell extract

[3] = target: T3, HeLa cell extract proteins (Homo sapiens, UniProt P38606)
T3 construct: endogenous in cells; host or cells: HeLa cell extract

[4] = target: T4, HeLa cell extract proteins (Homo sapiens, UniProt P48643)
T4 construct: endogenous in cells; host or cells: HeLa cell extract

[5] = target: T5, HeLa cell extract proteins (Homo sapiens, UniProt P62195)
T5 construct: endogenous in cells; host or cells: HeLa cell extract

[6] = target: T6, HeLa cell extract proteins (Homo sapiens, UniProt P63167)
T6 construct: endogenous in cells; host or cells: HeLa cell extract

[7] = target: T7, HeLa cell extract proteins (Homo sapiens, UniProt Q14978)
T7 construct: endogenous in cells; host or cells: HeLa cell extract
T7 sequence (Q14978 1-699): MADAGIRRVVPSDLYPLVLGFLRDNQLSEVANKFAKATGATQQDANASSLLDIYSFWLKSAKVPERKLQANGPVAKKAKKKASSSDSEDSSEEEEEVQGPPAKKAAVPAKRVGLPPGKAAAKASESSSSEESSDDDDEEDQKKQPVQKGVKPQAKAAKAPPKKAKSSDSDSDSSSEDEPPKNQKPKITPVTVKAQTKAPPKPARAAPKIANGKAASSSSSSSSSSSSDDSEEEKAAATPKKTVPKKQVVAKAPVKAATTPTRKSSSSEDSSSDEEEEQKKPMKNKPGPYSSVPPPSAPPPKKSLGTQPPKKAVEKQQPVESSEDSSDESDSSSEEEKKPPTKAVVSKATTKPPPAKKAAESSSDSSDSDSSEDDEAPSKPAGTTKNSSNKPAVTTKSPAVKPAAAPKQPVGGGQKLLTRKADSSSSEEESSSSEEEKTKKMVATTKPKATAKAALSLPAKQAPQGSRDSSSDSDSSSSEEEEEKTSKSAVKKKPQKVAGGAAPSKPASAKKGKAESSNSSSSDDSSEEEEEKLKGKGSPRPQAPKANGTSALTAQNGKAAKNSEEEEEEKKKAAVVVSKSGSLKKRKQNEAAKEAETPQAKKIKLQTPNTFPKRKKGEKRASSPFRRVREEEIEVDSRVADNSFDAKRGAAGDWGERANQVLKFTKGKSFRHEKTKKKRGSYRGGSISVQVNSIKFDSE

[8] = target: T8, HeLa cell extract proteins (Homo sapiens, UniProt Q6P1J9)
T8 construct: endogenous in cells; host or cells: HeLa cell extract

[9] = target: T9, HeLa cell extract proteins (Homo sapiens, UniProt Q6P3X3)
T9 construct: endogenous in cells; host or cells: HeLa cell extract

[10] = target: T10, HeLa cell extract proteins (Homo sapiens, UniProt Q969M3)
T10 construct: endogenous in cells; host or cells: HeLa cell extract

[11] = target: T11, HeLa cell extract proteins (Homo sapiens, UniProt Q96EY8)
T11 construct: endogenous in cells; host or cells: HeLa cell extract
T11 sequence (Q96EY8 33-250): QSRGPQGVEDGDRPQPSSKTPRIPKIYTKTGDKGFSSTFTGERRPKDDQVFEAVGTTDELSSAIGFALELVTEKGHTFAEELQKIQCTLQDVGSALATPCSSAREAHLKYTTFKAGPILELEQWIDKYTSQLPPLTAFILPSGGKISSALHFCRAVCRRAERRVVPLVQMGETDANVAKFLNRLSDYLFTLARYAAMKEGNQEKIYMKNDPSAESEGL

[12] = target: T12, HeLa cell extract proteins (Homo sapiens, UniProt Q99570)
T12 construct: endogenous in cells; host or cells: HeLa cell extract

[13] = target: T13, HeLa cell extract proteins (Homo sapiens, UniProt Q9H583)
T13 construct: endogenous in cells; host or cells: HeLa cell extract

[14] = target: T14, HeLa cell extract proteins (Homo sapiens, UniProt Q9NTG7)
T14 construct: endogenous in cells; host or cells: HeLa cell extract
T14 sequence (Q9NTG7 1-399): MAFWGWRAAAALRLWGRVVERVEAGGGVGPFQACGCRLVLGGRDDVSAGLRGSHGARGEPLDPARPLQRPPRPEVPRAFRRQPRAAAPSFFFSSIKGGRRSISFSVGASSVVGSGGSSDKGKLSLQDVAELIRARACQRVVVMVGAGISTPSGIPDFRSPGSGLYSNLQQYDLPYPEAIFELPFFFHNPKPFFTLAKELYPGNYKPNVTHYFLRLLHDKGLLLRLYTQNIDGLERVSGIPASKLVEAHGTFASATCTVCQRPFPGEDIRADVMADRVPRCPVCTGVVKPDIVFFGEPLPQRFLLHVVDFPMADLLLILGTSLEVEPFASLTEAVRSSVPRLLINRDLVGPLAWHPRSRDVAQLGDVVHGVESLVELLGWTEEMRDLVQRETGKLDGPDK

[15] = HeLa, protein BAG4 (BAG FAMILY MOLECULAR CHAPERONE REGULATOR 4)
[16] = HeLa, protein CCT5 (T-COMPLEX PROTEIN 1 SUBUNIT EPSILON.)

T13 sequence (Q9H583 whole entry): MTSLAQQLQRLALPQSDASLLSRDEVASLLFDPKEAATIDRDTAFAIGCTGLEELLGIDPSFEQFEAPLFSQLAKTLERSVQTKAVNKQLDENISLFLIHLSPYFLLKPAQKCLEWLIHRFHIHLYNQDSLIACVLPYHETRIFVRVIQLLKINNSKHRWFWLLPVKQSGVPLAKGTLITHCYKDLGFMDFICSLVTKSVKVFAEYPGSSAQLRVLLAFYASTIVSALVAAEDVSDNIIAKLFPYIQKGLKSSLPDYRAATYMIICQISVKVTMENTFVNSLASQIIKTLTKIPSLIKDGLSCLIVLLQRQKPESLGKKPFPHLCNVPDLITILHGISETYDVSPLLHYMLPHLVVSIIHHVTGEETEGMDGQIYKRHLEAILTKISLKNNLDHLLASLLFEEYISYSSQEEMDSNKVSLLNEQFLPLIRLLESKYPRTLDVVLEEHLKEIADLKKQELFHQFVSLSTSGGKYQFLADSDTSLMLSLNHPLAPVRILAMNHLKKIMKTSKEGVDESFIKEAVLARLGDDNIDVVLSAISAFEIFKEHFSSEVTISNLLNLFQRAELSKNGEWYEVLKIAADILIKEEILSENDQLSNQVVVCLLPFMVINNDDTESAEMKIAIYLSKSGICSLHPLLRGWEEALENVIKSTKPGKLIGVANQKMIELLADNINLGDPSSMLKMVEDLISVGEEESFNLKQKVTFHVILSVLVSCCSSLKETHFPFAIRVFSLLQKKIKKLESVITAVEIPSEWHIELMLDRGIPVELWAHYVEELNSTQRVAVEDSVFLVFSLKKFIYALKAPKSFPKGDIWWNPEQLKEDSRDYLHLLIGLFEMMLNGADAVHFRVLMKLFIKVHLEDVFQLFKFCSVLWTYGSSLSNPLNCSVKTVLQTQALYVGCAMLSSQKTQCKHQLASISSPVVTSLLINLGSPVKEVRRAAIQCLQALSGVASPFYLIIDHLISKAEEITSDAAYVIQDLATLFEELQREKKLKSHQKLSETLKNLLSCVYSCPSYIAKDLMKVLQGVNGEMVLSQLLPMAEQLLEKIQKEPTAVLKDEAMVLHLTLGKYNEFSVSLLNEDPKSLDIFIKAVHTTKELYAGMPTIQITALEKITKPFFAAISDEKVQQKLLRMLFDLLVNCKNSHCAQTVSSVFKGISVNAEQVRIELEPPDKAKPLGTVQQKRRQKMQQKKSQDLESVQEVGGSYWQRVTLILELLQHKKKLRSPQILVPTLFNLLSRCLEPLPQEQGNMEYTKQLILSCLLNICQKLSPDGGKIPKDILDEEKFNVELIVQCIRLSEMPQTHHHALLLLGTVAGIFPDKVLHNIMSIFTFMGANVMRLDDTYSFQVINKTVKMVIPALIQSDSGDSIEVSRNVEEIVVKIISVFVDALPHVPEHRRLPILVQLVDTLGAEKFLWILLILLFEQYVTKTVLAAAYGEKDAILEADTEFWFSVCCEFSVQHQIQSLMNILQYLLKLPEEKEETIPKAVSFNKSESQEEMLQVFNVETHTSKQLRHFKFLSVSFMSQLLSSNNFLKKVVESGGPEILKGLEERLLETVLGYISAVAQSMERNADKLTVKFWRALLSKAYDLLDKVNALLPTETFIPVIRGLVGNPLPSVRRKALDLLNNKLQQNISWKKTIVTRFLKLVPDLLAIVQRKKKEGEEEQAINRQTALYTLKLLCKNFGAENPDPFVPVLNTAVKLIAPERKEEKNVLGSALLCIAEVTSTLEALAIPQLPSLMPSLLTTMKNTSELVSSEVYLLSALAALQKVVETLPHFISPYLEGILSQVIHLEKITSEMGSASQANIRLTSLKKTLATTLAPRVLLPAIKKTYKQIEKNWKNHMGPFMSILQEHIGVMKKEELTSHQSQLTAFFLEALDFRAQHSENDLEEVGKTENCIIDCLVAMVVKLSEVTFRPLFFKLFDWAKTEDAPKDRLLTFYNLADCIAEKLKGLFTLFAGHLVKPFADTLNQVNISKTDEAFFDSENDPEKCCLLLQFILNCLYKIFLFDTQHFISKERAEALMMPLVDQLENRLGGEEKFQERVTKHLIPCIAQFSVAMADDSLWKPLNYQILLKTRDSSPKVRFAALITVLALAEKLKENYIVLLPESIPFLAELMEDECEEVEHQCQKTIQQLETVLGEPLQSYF
T4 sequence (P48643 whole entry): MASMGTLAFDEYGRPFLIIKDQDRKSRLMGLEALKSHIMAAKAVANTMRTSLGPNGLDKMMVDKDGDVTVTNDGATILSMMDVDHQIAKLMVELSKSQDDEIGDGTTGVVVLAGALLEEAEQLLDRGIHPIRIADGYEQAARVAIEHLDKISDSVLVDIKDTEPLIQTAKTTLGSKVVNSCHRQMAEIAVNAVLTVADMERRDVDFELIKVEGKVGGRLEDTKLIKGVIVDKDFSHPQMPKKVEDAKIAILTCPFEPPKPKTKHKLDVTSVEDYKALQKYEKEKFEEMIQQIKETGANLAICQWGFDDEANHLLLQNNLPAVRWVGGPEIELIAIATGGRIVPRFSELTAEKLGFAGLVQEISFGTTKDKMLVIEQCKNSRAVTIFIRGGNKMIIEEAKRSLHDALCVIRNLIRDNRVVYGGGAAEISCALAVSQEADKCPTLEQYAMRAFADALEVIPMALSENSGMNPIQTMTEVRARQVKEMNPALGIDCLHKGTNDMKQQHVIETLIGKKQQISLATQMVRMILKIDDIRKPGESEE
T3 sequence (P38606 whole entry): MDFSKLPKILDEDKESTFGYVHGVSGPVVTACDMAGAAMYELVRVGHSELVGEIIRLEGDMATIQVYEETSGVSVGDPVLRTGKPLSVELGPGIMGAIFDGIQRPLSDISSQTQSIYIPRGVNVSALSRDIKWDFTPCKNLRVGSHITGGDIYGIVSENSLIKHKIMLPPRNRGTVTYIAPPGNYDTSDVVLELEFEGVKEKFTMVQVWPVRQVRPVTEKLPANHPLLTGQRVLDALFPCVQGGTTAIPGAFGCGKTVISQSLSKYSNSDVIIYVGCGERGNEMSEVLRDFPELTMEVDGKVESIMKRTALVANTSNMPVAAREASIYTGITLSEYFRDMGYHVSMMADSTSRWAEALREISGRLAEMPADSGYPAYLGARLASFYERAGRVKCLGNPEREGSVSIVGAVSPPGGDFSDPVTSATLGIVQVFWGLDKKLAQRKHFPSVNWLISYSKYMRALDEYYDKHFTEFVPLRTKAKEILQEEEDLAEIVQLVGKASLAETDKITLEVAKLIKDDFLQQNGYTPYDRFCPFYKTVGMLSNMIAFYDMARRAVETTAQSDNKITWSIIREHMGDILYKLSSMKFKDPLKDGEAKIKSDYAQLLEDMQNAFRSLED
T5 sequence (P62195 whole entry): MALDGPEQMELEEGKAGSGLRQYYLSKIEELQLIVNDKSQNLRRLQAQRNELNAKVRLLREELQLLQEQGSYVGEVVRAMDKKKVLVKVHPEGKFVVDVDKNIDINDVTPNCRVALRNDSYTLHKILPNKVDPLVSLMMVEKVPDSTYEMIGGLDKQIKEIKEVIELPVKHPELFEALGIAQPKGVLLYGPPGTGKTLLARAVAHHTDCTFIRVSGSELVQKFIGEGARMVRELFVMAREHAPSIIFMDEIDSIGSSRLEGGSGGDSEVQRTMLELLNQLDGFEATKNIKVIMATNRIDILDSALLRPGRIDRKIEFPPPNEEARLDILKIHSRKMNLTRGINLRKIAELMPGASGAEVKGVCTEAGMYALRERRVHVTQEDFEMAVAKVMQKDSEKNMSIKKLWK
T10 sequence (Q969M3 whole entry): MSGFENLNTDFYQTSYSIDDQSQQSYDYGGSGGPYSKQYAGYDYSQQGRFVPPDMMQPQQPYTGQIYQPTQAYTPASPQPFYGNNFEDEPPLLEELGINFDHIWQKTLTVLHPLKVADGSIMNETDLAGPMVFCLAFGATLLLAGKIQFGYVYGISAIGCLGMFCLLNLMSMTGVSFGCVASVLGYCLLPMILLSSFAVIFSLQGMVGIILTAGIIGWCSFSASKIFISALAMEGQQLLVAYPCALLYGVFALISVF
T2 sequence (P31689 whole entry): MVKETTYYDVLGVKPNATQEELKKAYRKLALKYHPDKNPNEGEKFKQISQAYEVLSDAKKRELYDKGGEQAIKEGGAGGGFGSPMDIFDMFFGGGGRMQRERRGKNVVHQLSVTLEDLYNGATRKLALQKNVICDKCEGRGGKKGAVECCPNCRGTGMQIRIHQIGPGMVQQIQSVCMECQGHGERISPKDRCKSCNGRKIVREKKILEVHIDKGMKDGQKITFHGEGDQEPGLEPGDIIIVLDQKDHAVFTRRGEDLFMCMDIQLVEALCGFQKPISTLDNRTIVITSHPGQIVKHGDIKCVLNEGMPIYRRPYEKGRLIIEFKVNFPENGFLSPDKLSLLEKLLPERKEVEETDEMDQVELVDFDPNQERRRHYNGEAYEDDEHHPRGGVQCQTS
T6 sequence (P63167 whole entry): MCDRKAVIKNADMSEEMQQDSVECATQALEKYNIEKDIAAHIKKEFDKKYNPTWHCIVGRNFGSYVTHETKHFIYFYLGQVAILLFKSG

Compound: Nc1nc2c(c(=O)[nH]1)N(C=O)C(CNc1ccc(C(=O)N[C@@H](CCC(=O)O)C(=O)O)cc1)CN2 (some centres unmarked) [LEU, leucovorin]
- fold changes relative to vehicle control [1, 15]: 1.2
- fold changes relative to vehicle control ([2]; HeLa, protein DNAJA1): 0.99
- fold changes relative to vehicle control ([3]; HeLa, protein ATP6V1A): 1
- fold changes relative to vehicle control ([4]; HeLa, protein CCT5): 1.05
- fold changes relative to vehicle control ([5]; HeLa, protein PSMC5): 1.02
- fold changes relative to vehicle control ([6]; HeLa, captured protein DYNLL1): 1.05
- fold changes relative to vehicle control ([7]; protein NOLC1, HeLa): 0.93
- fold changes relative to vehicle control ([8]; protein CDC73, HeLa): 0.81
- fold changes relative to vehicle control ([9]; protein TTC27, HeLa): 0.76
- fold changes relative to vehicle control ([10]; HeLa, captured protein YIPF5): 0.94
- fold changes relative to vehicle control ([11]; HeLa, protein MMAB (COB)): 0.99
- fold changes relative to vehicle control ([12]; HeLa, protein PIK3R4): 0.97
- fold changes relative to vehicle control ([13]; HeLa, protein HEATR1): 0.94
- fold changes relative to vehicle control ([14]; HeLa, captured protein SIRT3): 1

Compound: Nc1nc2[nH]cc(CCc3ccc(C(=O)N[C@@H](CCC(=O)O)C(=O)O)cc3)c2c(=O)[nH]1 [PTX, pemetrexed]
- fold changes relative to vehicle control [1]: 1.05
- fold changes relative to vehicle control [2]: 0.93
- fold changes relative to vehicle control [3]: 0.9
- fold changes relative to vehicle control [4]: 1.13
- fold changes relative to vehicle control [5]: 1.03
- fold changes relative to vehicle control [6]: 1.06
- fold changes relative to vehicle control [7]: 0.87
- fold changes relative to vehicle control [8]: 0.76
- fold changes relative to vehicle control [9]: 0.74
- fold changes relative to vehicle control [10]: 0.98
- fold changes relative to vehicle control [11]: 0.85
- fold changes relative to vehicle control [12]: 1.08
- fold changes relative to vehicle control [13]: 0.98
- fold changes relative to vehicle control [14]: 0.95

Compound: CCCCCCOc1ccc(Cc2cnc(N)nc2N)cc1 [compound 1]
- fold changes relative to vehicle control ([1]; captured protein BAG4, HeLa): 0.99
- fold changes relative to vehicle control ([2]; HeLa, protein DNAJA1): 1.07
- fold changes relative to vehicle control ([3]; protein ATP6V1A, HeLa): 1.04
- fold changes relative to vehicle control [4, 16]: 1.41 fold
- fold changes relative to vehicle control ([5]; protein PSMC5, HeLa): 1.07
- fold changes relative to vehicle control ([6]; protein DYNLL1, HeLa): 1.08
- fold changes relative to vehicle control ([7]; protein NOLC1, HeLa): 0.9
- fold changes relative to vehicle control ([8]; protein CDC73, HeLa): 1.18
- fold changes relative to vehicle control ([9]; captured protein TTC27, HeLa): 0.94
- fold changes relative to vehicle control ([10]; captured protein YIPF5, HeLa): 1.43
- fold changes relative to vehicle control ([11]; HeLa, protein MMAB): 0.95
- fold changes relative to vehicle control ([12]; captured protein PIK3R4, HeLa): 1.03
- fold changes relative to vehicle control ([13]; HeLa, protein HEATR1): 1.14
- fold changes relative to vehicle control ([14]; protein SIRT3, HeLa): 1

Compound: CCCCCCOc1cccc(Cc2cnc(N)nc2N)c1 [compound 2]
- fold changes relative to vehicle control ([1]; captured protein BAG4, HeLa): 0.93
- fold changes relative to vehicle control ([2]; HeLa, protein DNAJA1): 1.11
- fold changes relative to vehicle control ([3]; protein ATP6V1A, HeLa): 1.5
- fold changes relative to vehicle control [4, 16]: 1.97 fold
- fold changes relative to vehicle control ([5]; protein PSMC5, HeLa): 1.36
- fold changes relative to vehicle control ([6]; protein DYNLL1, HeLa): 1.05
- fold changes relative to vehicle control ([7]; protein NOLC1, HeLa): 1.44
- fold changes relative to vehicle control ([8]; protein CDC73, HeLa): 1.08
- fold changes relative to vehicle control ([9]; captured protein TTC27, HeLa): 0.92
- fold changes relative to vehicle control ([10]; captured protein YIPF5, HeLa): 1.15
- fold changes relative to vehicle control ([11]; HeLa, protein MMAB): 0.94
- fold changes relative to vehicle control ([12]; captured protein PIK3R4, HeLa): 1.07
- fold changes relative to vehicle control ([13]; HeLa, protein HEATR1): 1.2
- fold changes relative to vehicle control ([14]; protein SIRT3, HeLa): 1

Compound: Nc1nc2cccc(-c3ccccc3)c2n1Cc1ccc(Cl)c(Cl)c1 [compound 3]
- fold changes relative to vehicle control ([1]; captured protein BAG4, HeLa): 1.25
- fold changes relative to vehicle control ([2]; HeLa, protein DNAJA1): 0.92
- fold changes relative to vehicle control ([3]; protein ATP6V1A, HeLa): 0.83
- fold changes relative to vehicle control [4, 16]: 1.18 fold
- fold changes relative to vehicle control ([5]; protein PSMC5, HeLa): 1.05
- fold changes relative to vehicle control ([6]; protein DYNLL1, HeLa): 0.96
- fold changes relative to vehicle control ([7]; protein NOLC1, HeLa): 0.96
- fold changes relative to vehicle control ([8]; protein CDC73, HeLa): 0.88
- fold changes relative to vehicle control ([9]; captured protein TTC27, HeLa): 0.81
- fold changes relative to vehicle control ([10]; captured protein YIPF5, HeLa): 0.72
- fold changes relative to vehicle control ([11]; HeLa, protein MMAB): 0.96
- fold changes relative to vehicle control ([12]; captured protein PIK3R4, HeLa): 0.95
- fold changes relative to vehicle control ([13]; HeLa, protein HEATR1): 1.12
- fold changes relative to vehicle control ([14]; protein SIRT3, HeLa): 1.16

Compound: NCCOCCOCC(=O)Nc1nc2ncc(CNc3ccc(C(=O)NC(CCC(=O)O)C(=O)O)cc3)nc2c(=O)[nH]1 (centres unmarked) [compound 6]
- fold changes relative to vehicle control [1, 15]: 1.03
- fold changes relative to vehicle control ([2]; HeLa, protein DNAJA1): 1.06
- fold changes relative to vehicle control ([3]; HeLa, protein ATP6V1A): 1.04
- fold changes relative to vehicle control ([4]; HeLa, protein CCT5): 1.29
- fold changes relative to vehicle control ([5]; HeLa, protein PSMC5): 1.12
- fold changes relative to vehicle control ([6]; HeLa, captured protein DYNLL1): 1.14
- fold changes relative to vehicle control ([7]; protein NOLC1, HeLa): 0.96
- fold changes relative to vehicle control ([8]; protein CDC73, HeLa): 0.88
- fold changes relative to vehicle control ([9]; protein TTC27, HeLa): 0.8
- fold changes relative to vehicle control ([10]; HeLa, captured protein YIPF5): 0.93
- fold changes relative to vehicle control ([11]; HeLa, protein MMAB (COB)): 0.51
- fold changes relative to vehicle control ([12]; HeLa, protein PIK3R4): 1.2
- fold changes relative to vehicle control ([13]; HeLa, protein HEATR1): 1.09
- fold changes relative to vehicle control ([14]; HeLa, captured protein SIRT3): 0.77

Compound: NCCCNc1ccc(C(=O)NC(CCC(=O)O)C(=O)O)cc1 (centres unmarked) [compound 7]
- fold changes relative to vehicle control [1, 15]: 1.12
- fold changes relative to vehicle control ([2]; HeLa, protein DNAJA1): 1.15
- fold changes relative to vehicle control ([3]; HeLa, protein ATP6V1A): 0.93
- fold changes relative to vehicle control ([4]; HeLa, protein CCT5): 1.03
- fold changes relative to vehicle control ([5]; HeLa, protein PSMC5): 1.04
- fold changes relative to vehicle control ([6]; HeLa, captured protein DYNLL1): 1.18
- fold changes relative to vehicle control ([7]; protein NOLC1, HeLa): 0.9
- fold changes relative to vehicle control ([8]; protein CDC73, HeLa): 0.76
- fold changes relative to vehicle control ([9]; protein TTC27, HeLa): 0.82
- fold changes relative to vehicle control ([10]; HeLa, captured protein YIPF5): 0.83
- fold changes relative to vehicle control ([11]; HeLa, protein MMAB (COB)): 0.94
- fold changes relative to vehicle control ([12]; HeLa, protein PIK3R4): 1.08
- fold changes relative to vehicle control ([13]; HeLa, protein HEATR1): 1.04
- fold changes relative to vehicle control ([14]; HeLa, captured protein SIRT3): 0.92
